In US20220144879A1, “FLUORESCENT PROBE FOR DETECTING CANCER” (The University of Tokyo, priority 2019, published 2022):

Assays:
[1] = test system: breast cancer and benign tumor tissues (clinical mammary gland specimen); assay: Two-color imaging with HMRef-α-D-Man and GGT probe in combination (FIG. 9); set-up: species or system human; details: 50 μM each probe; 30 minutes after administration of both probes
Method: Two-color imaging was performed under the following conditions using the glycosidase-reactive fluorescent probe 5 (HMRef-α-D-Man) (concentration: 50 μM) and a GGT probe gGlu-2-OMeSiR600 (concentration: 50 μM) in combination.
200 μL of a PBS solution of the fluorescent probes at the above concentrations was added to each well in which a clinical mammary gland specimen was placed, and fluorescence images at 1, 3, 5, 10, 20, and 30 minutes were acquired at 540 nm and 640 nm using the Maestro in vivo imaging system (PerkinElmer Inc.). Each fluorescence intensity value was quantified and compared by taking Regions Of Interest (ROIs) on Maestro software. For the glycosidase-reactive fluorescent probe 5, Ex/Em=465-30 nm/515 nm long-pass was used as the filter setting. For the GGT probe, Ex/Em=570-40 nm/610 nm long-pass was used.
The exposure time (in milliseconds) of the fluorescence image is indicated at the bottom of each image.

[2] = test system: intact glycosidase activities in normal breast, IDC (breast cancer), and FA (benign tumor) tissues; assay: Screening of glycosidase-reactive fluorescent probes for detecting breast cancer and benignancy (fluorescence increase in clinical mammary gland specimens); set-up: species or system human; details: probe 50 μM in PBS, increase from 1 minute to 30 minutes after addition, 540 nm
Method: Using the 12 types of glycosidase-reactive fluorescent probes synthesized above (refer to FIG. 1), screening for the detection of breast cancer and benignancy was performed in the following procedure.
200 μL of a PBS solution of each fluorescent probe at a concentration of 50 μM was added to each well in which a clinical mammary gland specimen was placed, and fluorescence images at 1, 3, 5, 10, 20, and 30 minutes were acquired at 540 nm using a Maestro in vivo imaging system (PerkinElmer Inc.). Each fluorescence intensity value was quantified and compared by taking Regions Of Interest (ROIs) on Maestro software. Ex/Em=465−30 nm/515 nm long-pass was used as the filter setting.
The increase in fluorescence indicates increase after the lapse of 1 minute to 30 minutes since the addition of the fluorescent probe. Each dot represents, from left to right, increase in fluorescence in normal breast, IDC, DCIS, and FA tissues.

`COc1ccccc1C1=C2C=CC(=N)C=C2[Si](C)(C)c2cc(NC(=O)CC[C@H](N)C(=O)O)ccc21` [gGlu-2OME-SiR600, gGlu-2-OMeSiR600] was tested, and the “red fluorescence (640 nm)” value [1] was “emitted red fluorescence in both breast cancer (malignant tumor) and the benign tumor”.
With `COc1ccccc1C1=C2C=CC(=N)C=C2[Si](C)(C)c2cc(NC(=O)CC[C@H](N)C(=O)O)ccc21` [compound 7] the increase in fluorescence [2] was “increase in fluorescence in both the breast cancer and FA (benign tumor) tissues”.
